# From US11413261B2, “Pharmaceutical composition for treating cancer comprising lactate metal salt” (METIMEDI PHARMACEUTICALS CO., LTD, priority 2014, dated 2022)
# What was measured:
# [1] = system: colorectal cancer cell (HT-29 or HCT-116); assay: Tumor volume in animal model treated with radiation and calcium lactate; format: in vivo, mice
# Protocol: A colorectal cancer cell (HT-29 or HCT-116) was subcutaneously implanted into the flank of mice. The mice were bred until the colorectal cancer cell grew to about 5 mm. Then, four groups were set up; a control group untreated with calcium lactate for 30 days, an experimental group 11 (intra tumor, I.T) injected with 2.5 mM calcium lactate, an experimental group 12 (IR) irradiated with radiation of 2 Gy five times using an X-RAD 320 X-ray irradiator (300 kVp) equipped with a 2.0 mm aluminum filter, and an experimental group 13 (CaLa+IR) irradiated with radiation of 2 Gy five times and injected with 2.5 mM calcium lactate at the same time (FIG. 36).
# The volumes of colorectal cancer tissues extracted from the mice of the control group or each of the experimental groups set up in Example 11-1 were measured over time and compared with each other (FIGS. 37a and 37b).
# [2] = system: human colorectal cancer cell lines (HCT-116 and HT-29); assay: Lactate level in cancer cells (lactate assay kit); format: cell-based; conditions: 2.5 mM, medium with 3 mM or 11 mM glucose, vs untreated
# Protocol: The cells cultured in Example 2-1 were cultured again in a medium including 3 mM (low) or 11 mM (normal) glucose. The cultured cells were disrupted by ultrasonication. The concentration of lactate included in the disrupted cells was measured using a lactate assay kit (AbCam, Cambridge, Mass.) (FIG. 3). In this case, cancer cells untreated with calcium lactate were used as control groups.
# PARP = PARP protein expression in melanoma cell lines; format: cell-based, human; conditions: SKMEL-02 and SKMEL-28; with increasing concentration (0-10 mM), 12 hours
# Protocol: Each of human melanoma cell lines (SKMEL-02 and SKMEL-28) cultured in a cancer cell culture medium (RPMI1640 medium including 10% FBS and 1% penicillin/streptomycin) at 37° C. with 5% CO2 was treated with 0 mM, 0.5 mM, 1.0 mM, 2.5 mM, 5.0 mM, or 10 mM calcium lactate for 12 hours. Then, protein expression levels of PARP expressed in the melanoma cell lines were compared (FIG. 10).
# β-catenin = β-catenin and activated β-catenin protein expression in breast cancer cell lines; format: cell-based, human; conditions: MCF-7 and MDA-MB-231; with increasing concentration
# Protocol: Using the same method as that of Example 3-1 the expression levels of β-catenin and activated β-catenin depending on the concentration of calcium lactate were compared at the protein expression level (FIG. 6) with a human breast cancer cell line (MCF-7) cultured in a cancer cell culture medium (RPMI1640 medium including 10% FBS and 1% penicillin/streptomycin) at 37° C. with 5% CO2 and a human breast cancer cell line (MDA-MB-231) cultured in another cancer cell culture medium (DMEM medium including 10% FBS and 1% penicillin/streptomycin) at 37° C. with 5% CO2.
# [3] = system: human colorectal cancer cell lines (HCT-116 and HT-29); assay: Pyruvate level in cancer cells (pyruvate assay kit); format: cell-based; conditions: 2.5 mM, 24 hours
# Protocol: Each of human colorectal cancer cell lines (HCT-116 and HT-29) with the cell number of 5×10^5 cells was treated with 2.5 mM calcium lactate for 24 hours and the cells were disrupted by ultrasonication and filtered using a 10 kDa filter so as to obtain filtrate. The obtained filtrate was applied to a pyruvate assay kit (Abcam, Cambridge, Mass.) to measure the concentration of pyruvate included in the filtrate (FIG. 12).
# [4] = system: human colorectal cancer cell lines (HCT-116, HT-29, and DLD-1); assay: Viability of colorectal cancer cell lines in plate with low adhesivity; format: cell-based; conditions: HCT-116, HT-29, DLD-1, 1.5 or 2.5 mM (untreated about 5%)
# Protocol: Human colorectal cancer cell lines (HCT-116, HT-29, and DLD-1) were inoculated into a 6-well plate with low adhesivity and then cultured treating with various concentrations (0 mM, 1.5 mM, or 2.5 mM) of calcium lactate. Then, survival rates of the cells were compared (FIG. 26).
# [5] = system: HIF-1α (hypoxia inducible factor 1α); assay: HIF-1α protein expression (Western blot); format: cell-based, human; conditions: HCT-116 and HT-29, hypoxia condition
# Protocol: Human colorectal cancer cell lines (HCT-116 and HT-29) were cultured for 24 hours, under normoxia or hypoxia condition either treated or not treated with 2.5 mM calcium lactate. Then, a Western blot using an anti-HIF-1α antibody was conducted to each of the cultured cancer cell lines (upper part of FIG. 15).
# Then, the human colorectal cancer cell lines (HCT-116 and HT-29) were treated with various concentrations (0.5 mM, 1.5 mM and 2.5 mM) of the calcium lactate under hypoxia condition and cultured and change in expression levels of HIF-1α in a nucleus of a cancer cell was measured (lower part of FIG. 15).
# [6] = system: human kidney cancer cell line (Caki-1); assay: Colony-forming ability, anticancer drug in combination with calcium lactate (6-well plates); format: cell-based; conditions: 2.5 mM calcium lactate alone, vs control
# Protocol: Human kidney cancer cell line (Caki-1) with the cell number of 1×10^3 cells were seeded into an RPMI1640 medium in each of 6-well plates. After one day, the medium was replaced with fresh medium and the cells were treated with 0.3 nM, 0.5 nM, and 1 nM Everolimus alone or treated with various concentrations (0.3 nM, 0.5 nM, and 1 nM) of Everolimus in combination with 2.5 mM calcium lactate. Then, the colony-forming abilities of the cells were compared. In this case, a human kidney cancer cell line (Caki-1) untreated with any drug was used as a control group (FIGS. 53a and 53b).
# VEGF = VEGF expression in tumor tissues of animal model; format: in vivo, Balb/c mice; conditions: HT-29 tumor tissue
# Protocol: A colorectal cancer cell (HT-29) cultured in an RPMI1640 medium and then diluted with PBS was subcutaneously implanted into the flank of Balb/c mice. The mice were bred until the colorectal cancer cell grew to about 5 mm. Then, four groups were set up; a control group untreated with calcium lactate for 30 days, an experimental group 1 (peroral, P.O.) administered with 2.5 mM calcium lactate by oral administration, an experimental group 2 (intra tumor, I.T) injected with 2.5 mM calcium lactate around tumor, and an experimental group 3 (subcutaneous, S.C) subcutaneously injected with 25 mM calcium lactate (FIG. 27).
# (§1) Colorectal cancer tissues were extracted from the mice of the control group or the experimental group 1 set up in Example 10-1, and expression levels of HIF-1α and VEGF involved in metastasis, invasion, and angiogenesis of tumor expressed therein were compared (FIG. 29). In this case, GAPDH was used as internal control groups.
# as §1, with “group 2” for “group 1”, “tumor” for “tumor expressed”, “(FIG. 31).” for “(FIG. 29).”
# cancer cell = assay: Comparison of lactate delivery efficiency to a cancer cell; format: cell-based; conditions: compared with sodium lactate and potassium lactate
smiles,measurement,setting,value
CC(O)C(=O)[O-].CC(O)C(=O)[O-].[Ca+2] (centres unmarked) [calcium lactate],growth of tumor,"[1]; 2.5 mM calcium lactate I.T. individually, vs control",inhibited
same,growth of tumor,[1]; 2.5 mM calcium lactate in combination with radiation of 2 Gy five times,inhibited to the lowest level
same,concentration of lactate in cancer cells,[2],increased
same,protein expression levels of PARP,PARP,decreased
same,protein expression levels of activated β-catenin,β-catenin,decreased
same,protein expression levels of β-catenin,β-catenin,decreased
same,pyruvate levels in the cells,[3],sharply increased
same,cell apoptosis rate,[4],about 90%
same,protein expression levels of HIF-1α,"[5]; 2.5 mM, 24 hours",not expressed
same,expression levels of HIF-1α in a nucleus of a cancer cell,"[5]; 0.5, 1.5, 2.5 mM",suppresses the expression levels of HIF-1α concentration dependently
same,colony-forming ability,[6],suppressed
same,expression of VEGF,"VEGF; experimental group 1, 2.5 mM oral administration",inhibited
same,expression of VEGF,"VEGF; experimental group 2, 2.5 mM injected around tumor",inhibited
same,lactate delivery efficiency to a cancer cell,cancer cell,highest lactate delivery efficiency
